Experimental data taken from patent publication US20070219180A1, “Muscle Relaxtion Accelerator and Therapeutic Agent for Muscular Tissue Diseases Such as Muscle Relaxation Failure” (priority 2004, published 2007).

Test system: binding of troponin I to the actin-tropomyosin complex
Test: Experiment 4 and comparison example: co-precipitation (binding) of troponin I with the actin-tropomyosin complex in the presence of EGTA
Design: species or system swine
Details: for Precipitate of troponin I (ratio to the sample without drug): 10 mM EGTA, 100,000×g 120 min 25° C.
Method: The actin-tropomyosin complex and the troponin C-I complex are usually detected by analyzing the precipitate obtained by ultracentrifugation of a mixture containing the actin-tropomyosin complex and the troponin C-I complex for 120 minutes at 100,000×g at 25° C. The binding of the troponin C-I complex to the actin-tropomyosin complex in muscle tissues can be confirmed by the detected actin-tropomyosin complex and the detected troponin C-I complex. For example, when a mixture containing the actin-tropomyosin complex and the troponin C-I complex is ultracentrifuged in the presence of EGTA as a calcium chelating agent (in other words, in the absence of calcium ions), the actin-tropomyosin complex and the troponin C-I complex combine each other to precipitate together. Detection of troponin I in the precipitate using SDS-gel electrophoresis allows confirmation that the precipitate contains a complex formed by the actin-tropomyosin complex and the troponin C-I complex.
A precipitate due to binding of the actin-tropomyosin complex and troponin I is usually not formed when a mixture containing the actin-tropomyosin complex, troponin and propranolol (a β-blocker) used as a therapeutic agent for heart failure is ultracentrifuged at 100,000×g for 120 minutes 25° C.
Swine muscle-derived actin, chicken gizzard-derived tropomyosin and swine myocardium-derived troponin used in this experiment were purchased from Sigma-Aldrich Corporation, and other unspecified reagents used in this experiment were purchased from Wako Pure Chemical Industries Ltd.
A 500 μl sample was prepared by adding 4.2 μg of actin, 2.1 μg of tropomyosin and 14 μg of troponin to 500 μl of a reaction solution containing 60 mM KCl, 20 mM MOPS (3-morpholinopropanesulfonic acid), 2 mM of MgCl2, 0.05 μg of pepstatin A, and 15 mM 2-mercaptoethanol. After centrifugation of this sample at 2,000×g for 10 minutes at 25° C., the precipitate was removed and the resulting supernatant was distributed to separate test tubes containing 10 mM of EGTA, and each tube was determined as a test sample.
Each test sample was reacted for 120 minutes at 25° C. and centrifuged at 100,000×g for 120 minutes at 25° C., and the supernatants were removed. After reaction solution was gently added to the removed precipitate so as not to suspend the precipitate, the precipitate was again removed by suction, washed, and determined as a test precipitate.
A sample buffer for polyacrylamide gel electrophoresis (SDS-PAGE) was added to each washed test precipitate and mixed well to suspend the test precipitate. The resulting suspension was electrophoresized on a gel (PAG MINI “No. 1” 10/20) for about 1 hour at 40 mA. After electrophoresis, the suspension was silver-stained using “Daiichi” 2D-silver staining reagent (Daiichi Pure Chemicals Co., Ltd), and washed with distilled water and dried. The amount of precipitate in each silver-stained protein band obtained by gel electrophoresis was quantitated using a densitometer.
The amounts of precipitate of troponin I in the second to fifth test precipitates were calculated as ratios of the amount of precipitate of troponin I in the first test precipitate, which was obtained without the compound (the concentration of the compound was 0 M).
The affinity of troponin I for the actin-tropomyosin complex was measured using the same method as in Experiment 4, but using propranolol (a β-blocker which is used as a therapeutic agent for heart failure) for comparison with the compound in the invention.
A 500 μl sample was prepared by adding 4.2 μg of actin, 2.1 μg of tropomyosin and 14 μg of troponin I to 500 μl of a reaction solution containing 60 mM KCl, 20 mM MOPS (3-morpholinopropanesulfonic acid), 2 mM MgCl2, 0.05 μg of pepstatin A, and 15 mM 2-mercaptoethanol. […]

CC(C)NCC(O)COc1cccc2ccccc12 (centres unmarked) [Propranolol, propranolol]
Precipitate of troponin I (ratio to the sample without drug) (drug concentration 10^−4 mol): 1.1 | Precipitate of troponin I (ratio to the sample without drug) (drug concentration 10^−5 mol): 0.9 | Precipitate of troponin I (ratio to the sample without drug) (drug concentration 10^−6 mol): 1.1 | Precipitate of troponin I (ratio to the sample without drug) (drug concentration 10^−7 mol): 0.9 | Effect on the bonding strength of troponin I to the actin-tropomyosin complex (co-precipitation) (ultracentrifugation 100,000×g, 120 minutes, 25° C.): does not enhance the bonding strength of troponin to the actin-tropomyosin complex
